According to PMC11359531, “Establishment of Dissolution Test Method for Multi-Components in Traditional Chinese Medicine Preparations Based on In Vitro–In Vivo Correlation” (Pharmaceuticals, 2024):

Legend:
[1] = Unit impulse response (UIR) fitting of pharmacokinetic data; conditions: best-fitted UIR, Akaike model
Text: The Phoenix WinNonlin IVIVC tool was utilized to evaluate the relationship between in vivo drug dissolution rate and blood drug concentration, which utilizes the Unit Impulse Response (UIR) function for this purpose. By using intravenous administration as the input for the unit impulse response, the influence of drug absorption can be eliminated. The obtained UIR function will be utilized for the deconvolution of pharmacokinetic data to obtain the curve of cumulative drug absorption over time [50]. (8) Y(t)=A×exp[Alpha×(t×Ka−tlag)] in which Y(t) is unit impulse response, A is the coefficient value, Alpha is the exponential value, Ka is the absorption rate constant, tlag is the lag time.

[2] = Dissolution test of Q-markers in YZTs, paddle method, and fitting of dissolution profiles; type: physicochemical; conditions: for Best-fitted dissolution model, Functions: YZTs, 75 rpm
Procedure: The dissolution of five Q-markers in YZTs was evaluated using the paddle method in accordance with the Chinese Pharmacopoeia. […] The dissolution tests were conducted at a temperature of 37 ± 0.5 °C and a paddle speed of 75 rpm. Add 6 tablets to each dissolving cup, accompanied by 900 mL of dissolving solution, in 6 parallel aliquots, and samples of 3 mL were collected at 15, 30, 45, 60, 90, 120, 180, 240, and 360 min, respectively. Taking into account the gastric emptying time, the end time of dissolution measurement was 180 min when taking 0.1 M of HCl as dissolution medium. The dissolution medium was replenished after each sampling. The samples were filtered through 0.22 μm membrane and analyzed using the HPLC method described in Section 3.2. The chromatographic results were processed to calculate the concentration of each component at different time points, and the dissolution results were calculated using Equation (3) as follows:(3) D=(CnV1+V2∑i=1n−1Cn−1)×100%/M
Cn is the drug concentration at time point n; V1 is the volume of dissolution medium in the dissolution cup; V2 is the volume of the sample removed at each time point; M is the total drug content.
The Phoenix WinNonlin IVIVC Toolkit provides Hill, Weibull, and Makoid Banakar functions to fit the average dissolution of each component in each dissolved medium. The best-fitting model was selected according to the highest correlation coefficient (R) and the smallest Akaike information criterion (AIC) value in the fitting results.
Hill:(4) Fdiss,vitro=Finf×t^b/MDT^b+t^b
Weibull:(5) Fdiss,vitro=Finf×(1−exp[−t−tlag/MDT]^b)
Makoid Banakar:(6) Fdiss,vitro=Fmax×(t/Tmax)^b×exp[b×(1−t/Tmax)] for t≤T_max (7) Fdiss,vitro=Fmax for t>Tmax where Fdiss,vitro is the fitting fraction dissolved at time t, Finf is the fraction dissolved at time infinity (fixed as 1), MDT is the average dissolution time (hours), Fmax is the maximum in vitro dissolution value, tlag is the lag time, Tmax is the time corresponding to the maximum in vitro dissolution value, and b is the shape parameters.

[3] = Pharmacokinetic study of the Q-markers in beagle dogs; conditions: dog
Procedure: An ACQUITY UPLC system from Waters was used for chromatography separation, equipped with a Waters Cortecs C18 column (1.7 μm, 2.1 mm × 50 mm) operated at a flow rate of 0.30 mL/min. The column temperature and auto-sampler temperature were set as 45 °C and 4 °C, respectively. The mobile phases were 10 mM ammonium acetate solution (pH 5.0 by acetic acid) (A) and acetonitrile (B) and the gradient elution used was as follows: 30–39% B from 0–3.3 min, 39–95% B from 3.3–5.4 min, 95% B from 5.4–7.4 min, 95–30% B from 7.4–13.5 min, and 30% B from 13.5–16.0 min. The injection volume was 3 μL. The AB SCIEX Qtrap™ 6500 LC-MS/MS system with electron spray ionization (ESI) source in multiple reaction monitoring (MRM) mode was used for MS analysis. The detection was performed under the following conditions: source temperature (at set point) at 550.0 °C, positive ion mode, GS1 at 40 psi, GS2 at 40 psi, CUR at 45 psi, CXP at 15 V, DP at 100 V, and EP at 10 V. Quantitative analysis of analytes in MRM mode was used to determine the transition of precursor ions to specific product ions (m/z): tetrahydropalmatine, m/z […] [M + H]+ → m/z 229.0 (collision energy, CE: 17 V), corydaline, m/z […] (CE: 17 V), protopin, m/z […] [M + H]+ → m/z 227.1 (CE: 23 V), allocryptopine, m/z […] [M + H]+ → m/z 373.2 (CE: 17 V), and byakangelicin, m/z 389.2 [M + H]+ → m/z 363.1 (CE: 17 V). The data were processed using MultiQuant™ 2.1 software purchased from SCIEX.
The standard solutions of tetrahydropalmatine, corydaline, protopin, α-allocryptopine, and byakangelicin were prepared by dissolving them in acetonitrile to obtain a mixed standard stock solution, which was further diluted with acetonitrile to prepare a series of different concentration gradient mixed standard solutions. An internal standard solution of 25 ng/mL was prepared from betamethasone solution (500 μg/mL) diluted with acetonitrile. Blank dog blood was collected through intravenous blood sampling, and plasma was obtained by centrifugation. To prepare the standard plasma sample, 25 μL of the mixed standard solution was added to 100 μL of blank plasma, and 400 μL of acetonitrile was added and vortexed for protein precipitation. The supernatant was acquired by centrifugation and blown dry with nitrogen. Then, 100 μL of acetonitrile was added to the dried supernatant, and the resulting solution was mixed to gain the standard plasma sample. Different mixed standard solution including a serial of concentrations of tetrahydropalmatine: 0.625–25 ng/mL, corydaline: 0.625–25 ng/mL, protopin: 0.1–4 ng/mL, α-allocryptopine: 0.1–4 ng/mL, byakangelicin: 18.75–750 ng/mL were applied to prepare standard plasma sample and quality control (QC) samples of plasma as follows: 1.25, 5, and 20 ng/mL for tetrahydropalmatine and corydaline, 0.2, 0.8, and 3.2 ng/mL for protopin and α-allocryptopine, and 37.5, 150, and 600 ng/mL for byakangelicin.
For pharmacokinetic study, six beagle dogs were used and housed in a professional animal breeding room with a relative humidity of 55–60% and a temperature of 25 °C for one week. The experimental operation was carried out in accordance with ethical requirements for animal experiments and approved by the Institutional Animal Care and Use Committee of the School of Pharmacy, Fudan University. The dogs had free access to drinking water and were fasted for 24 h before the experiment. The dogs were randomly divided into two groups, one group receiving an oral dose of 12 tablets with brand A (tetrahydropalmatine 2.5 mg, corydaline 0.963 mg, protopin 1.896 mg, α-allocryptopine 0.917 mg, and byakangelicin 2.783 mg), while the other group were given an intravenous dose of 2 mL of normal saline containing tetrahydropalmatine 19.75 μg, corydaline 4.54 μg, protopin 168.062 μg, α-allocryptopine 297.16 μg, and byakangelicin 78.68 μg. Blood samples of 2 mL were taken at 15, 30, 45, 60, 90, 120, 150, 180, 240, 360, 480, 720, and 1440 min after dosing.

UIR parameter A1, Estimate [1] | UIR parameter Ka, Estimate [1] | UIR parameter Tlag, Estimate [1] | UIR parameter alpha1, Estimate [1] | AUC(0-inf) ([3]; beagle, plasma, iv) | AUC(0-t) ([3]; beagle, plasma, iv) | Cmax ([3]; beagle, plasma, iv) | Tmax ([3]; beagle, plasma, iv) | half-life ([3]; beagle, plasma, iv) | AUC ([3]; beagle, plasma, po) | AUC(0-inf) ([3]; beagle, plasma, po) | AUC(0-t) ([3]; beagle, plasma, po) | Cmax ([3]; beagle, plasma, po) | Tmax ([3]; beagle, plasma, po) | bioavailability ([3]; beagle, plasma, po) | half-life ([3]; beagle, plasma, po) | Best-fitted dissolution model, Functions ([2]; FaSSIF-V2) | Compound | Best-fitted dissolution model, Functions ([2]; 0.1 M HCl) | Best-fitted dissolution model, Functions ([2]; Acetate buffer) | Best-fitted dissolution model, Functions ([2]; Phosphate buffer) | also measured
0.02 ng/mL | 2.23 h⁻¹ | 0.45 h | 1.18 h⁻¹ | 11.7 ng·h/mL | 11.1 ng·h/mL | 11.8 ng/mL | 0.0833 h | 0.775 h | 59.7 ng·h/mL | 65.3 ng·h/mL | 59.7 ng·h/mL | 27.3 ng/mL | 1 h | 3.81% | 3.29 h |  | COc1c2ccoc2c(OC[C@@H](O)C(C)(C)O)c2oc(=O)ccc12 [Byakangelicin, byakangelicin] |  |  |  | released ([2]; from YZTs, all other dissolution media than simulated gastric fluid and 0.1 M HCl, paddle 75 rpm): less than 40%
0.05 ng/mL | 1.46 h⁻¹ | 0.44 h | 1.42 h⁻¹ | 7.18 ng·h/mL | 6.5 ng·h/mL | 5.01 ng/mL | 0.0833 h | 3.96 h | 74.2 ng·h/mL | 81.1 ng·h/mL | 74.2 ng·h/mL | 24.8 ng/mL | 1.5 h | 5.38% | 8.74 h | y(t) = 0.15 × (1 − exp[−(t/3.14)^1.77]) | COc1cc2c(cc1OC)[C@H]1[C@@H](C)c3ccc(OC)c(OC)c3CN1CC2 [Corydaline, corydaline] | y(t) = 0.79 × (1 − exp[−(t/1.06)^2.00]) | y(t) = 0.71 × (1 − exp[−(t/1.23)^2.04]) | y(t) = 0.25 × (1 − exp[−(t/1.94)^2.82]) | 
 |  |  |  | 10.9 ng·h/mL | 9.87 ng·h/mL | 11.4 ng/mL | 0.0833 h | 6.66 h | 136 ng·h/mL | 137 ng·h/mL | 136 ng·h/mL | 45.7 ng/mL | 1.5 h | 10.8% | 3.9 h | y(t) = 0.38 × (1 − exp[−(t/3.48)^1.91]) | COc1cc2c(cc1OC)[C@@H]1Cc3ccc(OC)c(OC)c3CN1CC2 [Tetrahydropalmatine, tetrahydropalmatine] |  |  | y(t) = 0.30 × (1 − exp[−(t/2.29)^2.34]) | 
 |  |  |  |  |  |  |  |  |  |  |  |  |  |  |  |  | protopine | y(t) = 0.70 × (1 − exp[−(t/1.10)^2.06]) |  | y(t) = 0.62 × (1 − exp[−(t/1.50)^1.63]) | Best-fitted dissolution model, Functions ([2]; FaSSGF): y(t) = 0.82 × (1 − exp[−t^1.01]); Bioavailability (absolute oral) ([3]; in vivo): 1.35%; Cl/F ([3]; in vivo, iv): 0.03 L/h; Cmax ([3]; in vivo, iv): 12.44 ng/mL; T1/2 ([3]; in vivo, iv): 4.5773 h; Tmax ([3]; in vivo, iv): 0.083 h; Vz/F ([3]; in vivo, iv): 0.22 L; Cl/F ([3]; in vivo, po): 0.21 L/h; Cmax ([3]; in vivo, po): 1.63 ng/mL; Observed AUC ([3]; in vivo, po): 205.15; Observed Cmax ([3]; in vivo, po): 1.63 ng/mL; T1/2 ([3]; in vivo, po): 5.321 h; Tmax ([3]; in vivo, po): 1.5 h; Vz/F ([3]; in vivo, po): 1.64 L

Compound | UIR parameter A1, Estimate [1] | UIR parameter Ka, Estimate [1] | UIR parameter Tlag, Estimate [1] | UIR parameter alpha1, Estimate [1] | AUC(0-inf) ([3]; beagle, plasma, iv) | AUC(0-t) ([3]; beagle, plasma, iv) | Cmax ([3]; beagle, plasma, iv) | Tmax ([3]; beagle, plasma, iv) | half-life ([3]; beagle, plasma, iv) | AUC ([3]; beagle, plasma, po) | AUC(0-inf) ([3]; beagle, plasma, po) | AUC(0-t) ([3]; beagle, plasma, po) | Cmax ([3]; beagle, plasma, po) | Tmax ([3]; beagle, plasma, po) | bioavailability ([3]; beagle, plasma, po) | half-life ([3]; beagle, plasma, po) | Best-fitted dissolution model, Functions ([2]; FaSSIF-V2) | Best-fitted dissolution model, Functions ([2]; 0.1 M HCl) | Best-fitted dissolution model, Functions ([2]; Acetate buffer) | Best-fitted dissolution model, Functions ([2]; Phosphate buffer) | also measured
COc1ccc2c(c1OC)CN(C)CCc1cc3c(cc1C(=O)C2)OCO3 [α-allocryptopine] | 0 ng/mL | 5.65 h⁻¹ | 0.67 h | 1.13 h⁻¹ |  |  |  |  |  |  |  |  |  |  |  |  |  |  | y(t) = 0.86 × (1 − exp[−(t/1.26)^1.97]) | y(t) = 0.60 × (1 − exp[−(t/1.29)^1.78]) | released within 6 h ([2]; from YZTs, phosphate buffer and artificial intestinal fluid, paddle 75 rpm): less than 60%; AUC(0-inf) ([3]; beagle, in vivo, iv): 39.6 ng·h/mL; AUC(0-t) ([3]; beagle, in vivo, iv): 35.9 ng·h/mL; Cmax ([3]; beagle, in vivo, iv): 32.8 ng/mL; Tmax ([3]; beagle, in vivo, iv): 0.0833 h; half-life ([3]; beagle, in vivo, iv): 5.52 h; AUC ([3]; beagle, in vivo, po): 8.31 ng·h/mL; AUC(0-inf) ([3]; beagle, in vivo, po): 9.12 ng·h/mL; AUC(0-t) ([3]; beagle, in vivo, po): 8.31 ng·h/mL; Cmax ([3]; beagle, in vivo, po): 3.51 ng/mL; Tmax ([3]; beagle, in vivo, po): 1 h; bioavailability ([3]; beagle, in vivo, po): 7.5%; half-life ([3]; beagle, in vivo, po): 8.39 h
